Laboratory results published in ChEMBL document CHEMBL3044838, “Phytotoxic activity of quinones and resorcinolic lipid derivatives” (J Agric Food Chem, 2010).
Activity calls are given as the source filed them. The calls are words filed in the database; no cut-off is given here.

Experiments:
Type in all cases: functional, organism-based
[1] = test system: Lactuca sativa; test: Phytotoxic activity against Lactuca sativa cv. Iceberg A (lettuce) seedlings assessed as growth inhibition at 0.01 mM
[2] = test system: Lactuca sativa; test: Phytotoxic activity against Lactuca sativa cv. Iceberg A (lettuce) seedlings assessed as growth inhibition at 0.03 mM
[3] = test system: Lactuca sativa; test: Phytotoxic activity against Lactuca sativa cv. Iceberg A (lettuce) seedlings assessed as growth inhibition at 0.1 mM
[4] = test system: Lactuca sativa; test: Phytotoxic activity against Lactuca sativa cv. Iceberg A (lettuce) seedlings assessed as growth inhibition at 1 mM
[5] = test system: Agrostis stolonifera; test: Phytotoxic activity against Agrostis stolonifera var. Penncross seedlings assessed as growth inhibition at 0.01 mM
[6] = test system: Agrostis stolonifera; test: Phytotoxic activity against Agrostis stolonifera var. Penncross seedlings assessed as growth inhibition at 0.03 mM
[7] = test system: Agrostis stolonifera; test: Phytotoxic activity against Agrostis stolonifera var. Penncross seedlings assessed as growth inhibition at 1 mM
[8] = test system: Agrostis stolonifera; test: Phytotoxic activity against Agrostis stolonifera var. Penncross seedlings assessed as growth inhibition at 0.3 mM
[9] = test system: Agrostis stolonifera; test: Phytotoxic activity against Agrostis stolonifera var. Penncross seedlings assessed as growth inhibition at 0.1 mM
[10] = test system: Lactuca sativa; test: Phytotoxic activity against Lactuca sativa cv. Iceberg A (lettuce) seedlings assessed as growth inhibition at 0.3 mM

| SMILES | growth inhibition (GI) [1] | growth inhibition (GI) [2] | growth inhibition (GI) [3] | growth inhibition (GI) [4] | growth inhibition (GI) [5] | growth inhibition (GI) [6] | growth inhibition (GI) [7] | growth inhibition (GI) [8] | growth inhibition (GI) [9] | growth inhibition (GI) [10] |
| --- | --- | --- | --- | --- | --- | --- | --- | --- | --- | --- |
| CCCCCC1=C(O)C(=O)C=C(OC)C1=O | inactive | inactive | inactive | Active | inactive | inactive | – | – | – | – |
| CCCCCCCCCCCCCCC1=C(O)C(=O)C=C(OC)C1=O | inactive | inactive | inactive | – | inactive | inactive | inactive | inactive | inactive | – |
| C=CC/C=C\C/C=C\CCCCCCCC1=C(O)C(=O)C=C(OC)C1=O | inactive | inactive | – | – | inactive | inactive | inactive | inactive | inactive | – |
| CCCCCCCCCCC1=C(OC)C(=O)C=C(OC)C1=O | inactive | inactive | inactive | – | inactive | inactive | – | inactive | inactive | inactive |
| CCCCCC1=C(OC)C(=O)C=C(OC)C1=O | inactive | inactive | inactive | – | inactive | inactive | – | – | – | – |
